Results reported in patent US9611251B2, “Substituted piperidine compounds and their use as orexin receptor modulators” (Janssen Pharmaceutica NV, priority 2013, dated 2017).
Counter-ions that a name gives are not always drawn.

What follows are compounds tested against rat orexin 1 receptor (Rattus norvegicus, UniProt P56718) (assay: Rat orexin 1 receptor radioligand binding). Settings: not given.
Description: (§1) Data are analyzed using pc-Sandy macro and graphed on Graphpad Prism 5. For analysis, each concentration point is averaged from triplicate values and the averaged values are plotted on Graphpad Prism. The IC50 was determined by applying the following equation (GraphPad Prism 5.0, SanDiego) for one site competition where X=log (concentration) and Y=specific binding. Top denotes the total [^3H]-(1-(5-(2-fluoro-phenyl)-2-methyl-thiazol-4-yl)-1-((S)-2-(5-phenyl-(1,3,4)oxadiazol-2-ylmethyl)-pyrrolidin-1-yl)-methanone) binding, bottom denotes the nonspecific [^3H]-(1-(5-(2-fluoro-phenyl)-2-methyl-thiazol-4-yl)-1-((S)-2-(5-phenyl-(1,3,4)oxadiazol-2-ylmethyl)-pyrrolidin-1-yl)-methanone) binding. Graphpad Prism calculates Ki value from IC50 and the pre-determined Kd values for [^3H]-(1-(5-(2-fluoro-phenyl)-2-methyl-thiazol-4-yl)-1-((S)-2-(5-phenyl-(1,3,4)oxadiazol-2-ylmethyl)-pyrrolidin-1-yl)-methanone) and [3H]-EMPA. The Ki for each compound is then uploaded into 3DX. Each run comprises individual compounds in triplicate.
Rat and Human Orexin 1 Receptor Radioligand Binding Studies
After centrifugation (2K×G, 5 min at 4° C.), the supernatant was aspirated and the pellets frozen and stored at −80° C. […] Each cell pellet from a 15 cm plate was resuspended in 10 mL, stored on ice, and homogenized for 45 sec prior to addition to the reactions. Competition binding experiments in 96 well polypropylene plates were performed using [^3H]-(1-(5-(2-fluoro-phenyl)-2-methyl-thiazol-4-yl)-1-((S)-2-(5-phenyl-(1,3,4)oxadiazol-2-ylmethyl)-pyrrolidin-1-yl)-methanone) (Moraveck Corporation, specific activity=35.3 Ci/mmol), diluted to a 10 nM concentration in PBS (4 nM final). […] The final concentration of DMSO in the reactions is equal to or less than 0.1%. Total and nonspecific binding was determined in the absence and presence of 10 μM almorexant. The total volume of each reaction is 200 μL (20 μL of diluted compounds, 80 μL of [^3H]-(1-(5-(2-fluoro-phenyl)-2-methyl-thiazol-4-yl)-1-((S)-2-(5-phenyl-(1,3,4)oxadiazol-2-ylmethyl)-pyrrolidin-1-yl)-methanone) diluted in PBS and 100 μL of the cell suspension). […] The plates were washed 3 times by aspirating 30 ml PBS through the plates. Plates were dried in 55° C. oven for 60 min, scintillation fluid was added, and the radioactivity was counted on a Topcount (Packard).

SMILES | Ki
Cc1ccc(-c2ncco2)c(C(=O)N2CCC[C@@H](Nc3ccc(C(F)(F)F)cn3)[C@@H]2C)n1 [Example 25, ((2S,3R)-2-methyl-3-((5-(trifluoromethyl)pyridin-2-yl)amino)piperidin-1-yl)(6-methyl-3-(oxazol-2-yl)pyridin-2-yl)methanone hydrochloride] | 12 nM

Same assay, conditions: rat orexin 1 receptor radioligand binding; averages of 2-20 runs; read-out: rOX1 Ki

Ki | SMILES
16 nM | Cc1ccc(C(=O)N2CCC[C@@H](Nc3ccc(C(F)(F)F)cn3)[C@@H]2C)c(-n2nccn2)c1 (racemic) [Example 13, (±)-trans-(4-methyl-2-(2H-1,2,3-triazol-2-yl)phenyl)(2-methyl-3-((5-(trifluoromethyl)pyridin-2-yl)amino)piperidin-1-yl)methanone]
259 nM | COc1ccc(C(=O)N2CCC[C@@H](Nc3ncc(Cl)cn3)[C@@H]2C)c(-n2nccn2)c1 (relative stereo) [Example 185, ((2 S*,3R*)-3-((5-chloropyrimidin-2-yl)amino)-2-methylpiperidin-1-yl)(4-methoxy-2-(2H-1,2,3-triazol-2-yl)phenyl)methanone]
278 nM | COc1ccc(C(=O)N2CCC[C@@H](Nc3cnc(Cl)cn3)[C@@H]2C)c(-n2nccn2)c1 (relative stereo) [Example 186, ((2S*,3R*)-3-((5-chloropyrazin-2-yl)amino)-2-methylpiperidin-1-yl)(4-methoxy-2-(2H-1,2,3-triazol-2-yl)phenyl)methanone]
1100 nM | COc1ccc(C(=O)N2CCC[C@@H](Nc3ccc(C(F)(F)F)cn3)[C@@H]2C)c(Cl)n1 (relative stereo) [Example 193, (2-chloro-6-methoxypyridin-3-yl)((2S*,3R*)-2-methyl-3-((5-(trifluoromethyl)pyridin-2-yl)amino)piperidin-1-yl)methanone]
357 nM | Cc1cnc(C(=O)N2CCC[C@@H](Nc3nnc(C(F)(F)F)s3)[C@@H]2C)c(-n2nccn2)c1 (relative stereo) [Example 195, ((2S*,3R*)-2-methyl-3-((5-(trifluoromethyl)-1,3,4-thiadiazol-2-yl)amino)piperidin-1-yl)(5-methyl-3-(2H-1,2,3-triazol-2-yl)pyridin-2-yl)methanone]
1800 nM | Cc1ccc(C(=O)N2CCC[C@@H](Nc3nnc(C(F)(F)F)s3)[C@@H]2C)c(-n2nccn2)n1 (relative stereo) [Example 196, (6-methyl-2-(2H-1,2,3-triazol-2-yl)pyridin-3-yl)((2S*,3R*)-2-methyl-3-((5-(trifluoromethyl)-1,3,4-thiadiazol-2-yl)amino)piperidin-1-yl)methanone]

Each compound was assayed against human orexin 2 receptor (Homo sapiens (Human), UniProt O43614) (assay: Human orexin 2 receptor radioligand binding ([3H]-EMPA)). Settings: averages of 2-20 runs, read-out: hOX2 Ki.
Description: as §1
Human Orexin 2 Receptor Radioligand Binding Studies
HEK293 stably expressing human orexin 2 receptor (Genebank accession number NM_001526) were grown to confluency in DMEM (Hyclone, cat #SH30022), 10% FBS, 1×Pen/Strep, 1× NaPyruvate, 10 mM HEPES, 600 ug/ml G418 media on 150 cm^2 tissue culture plates, washed with 5 mM EDTA in PBS (HyClone Dulbecco's Phosphate Buffered Saline 1× with Calcium and Magnesium, Cat #SH30264.01, hereafter referred to simply as PBS) and scraped into 50 ml tubes. After centrifugation (2K×G, 5 min at 4° C.), the supernatant was aspirated and the pellets frozen and stored at −80° C. […] Each cell pellet from a 15 cm plate was resuspended in 10 mL, stored on ice, and homogenized for 45 sec just prior to addition to the reactions. Competition binding experiments in 96 well polypropylene plates were performed using [^3H]-EMPA (Moraveck Corporation, specific activity=29.6 Ci/mmol), diluted to a 5 nM concentration in PBS (2 nM final concentration). […] The final concentration of DMSO in the reactions is equal to or less than 0.1%. Total and nonspecific binding was determined in the absence and presence of 10 μM almorexant. The total volume of each reaction is 200 μL (20 μL of diluted compounds, 80 μL of [^3H]-EMPA diluted in PBS and 100 μL of the cell suspension). […] The plates were washed 3 times by aspirating 30 ml PBS through the plates. Plates were dried in 55° C. oven for 60 min, scintillation fluid was added, and the radioactivity was counted on a Topcount (Packard).

Sequence of human orexin 2 receptor (O43614 whole entry): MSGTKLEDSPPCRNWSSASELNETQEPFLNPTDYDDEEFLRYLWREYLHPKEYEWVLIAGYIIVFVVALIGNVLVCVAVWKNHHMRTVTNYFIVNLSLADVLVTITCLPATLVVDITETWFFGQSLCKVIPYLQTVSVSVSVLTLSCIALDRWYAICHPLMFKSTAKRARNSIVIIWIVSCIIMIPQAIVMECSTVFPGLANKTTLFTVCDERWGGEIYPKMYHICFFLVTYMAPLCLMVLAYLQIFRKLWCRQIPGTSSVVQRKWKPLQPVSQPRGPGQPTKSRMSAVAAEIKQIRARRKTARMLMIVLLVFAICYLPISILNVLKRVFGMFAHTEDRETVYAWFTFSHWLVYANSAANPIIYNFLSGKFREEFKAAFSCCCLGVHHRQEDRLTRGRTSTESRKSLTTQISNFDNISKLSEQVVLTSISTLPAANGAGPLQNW

Ki | SMILES
1900 nM | Cc1ccc(C(=O)N2CCC[C@@H](Nc3cnc(Cl)cn3)[C@@H]2C)c(-n2nccn2)c1 (relative stereo) [Example 180, ((2S*,3R*)-3-((5-chloropyrazin-2-yl)amino)-2-methylpiperidin-1-yl)(4-methyl-2-(2H-1,2,3-triazol-2-yl)phenyl)methanone]
8600 nM | COc1ccc(C(=O)N2CCC[C@@H](Nc3ncc(Cl)cn3)[C@@H]2C)c(-n2nccn2)c1 (relative stereo) [Example 185, ((2 S*,3R*)-3-((5-chloropyrimidin-2-yl)amino)-2-methylpiperidin-1-yl)(4-methoxy-2-(2H-1,2,3-triazol-2-yl)phenyl)methanone]
9400 nM | COc1ccc(C(=O)N2CCC[C@@H](Nc3cnc(Cl)cn3)[C@@H]2C)c(-n2nccn2)c1 (relative stereo) [Example 186, ((2S*,3R*)-3-((5-chloropyrazin-2-yl)amino)-2-methylpiperidin-1-yl)(4-methoxy-2-(2H-1,2,3-triazol-2-yl)phenyl)methanone]
> 10000 nM | Cc1ccc(C(=O)N2CCC[C@@H](Nc3nnc(C(F)(F)F)s3)[C@@H]2C)c(-n2nccn2)n1 (relative stereo) [Example 196, (6-methyl-2-(2H-1,2,3-triazol-2-yl)pyridin-3-yl)((2S*,3R*)-2-methyl-3-((5-(trifluoromethyl)-1,3,4-thiadiazol-2-yl)amino)piperidin-1-yl)methanone]
985 nM | C[C@H]1[C@H](Nc2ncc(C(F)(F)F)cn2)CCCN1C(=O)c1cccc(F)c1-c1ncccn1 (relative stereo) [Example 200, (3-fluoro-2-(pyrimidin-2-yl)phenyl)((2S*,3R*)-2-methyl-3-((5-(trifluoromethyl)pyrimidin-2-yl)amino)piperidin-1-yl)methanone]
1500 nM | C[C@H]1[C@H](Nc2ncc(C(F)(F)F)cn2)CCCN1C(=O)c1ccc(F)cc1-c1ncccn1 (relative stereo) [Example 202, (4-fluoro-2-(pyrimidin-2-yl)phenyl)((2S*,3R*)-2-methyl-3-((5-(trifluoromethyl)pyrimidin-2-yl)amino)piperidin-1-yl)methanone]
190 nM | C[C@H]1[C@H](Nc2ccc(Cl)cn2)CCCN1C(=O)c1ccccc1-n1nccn1 [Example 100, (2-(2H-1,2,3-triazol-2-yl)phenyl)((2S,3R)-3-((5-chloropyridin-2-yl)amino)-2-methylpiperidin-1-yl)methanone]
1050 nM | Cc1cccc(C(=O)N2CCC[C@@H](Oc3ncc(Cl)cn3)[C@@H]2C)c1-n1nccn1 [Example 163, ((2S,3R)-3-((5-chloropyrimidin-2-yl)oxy)-2-methylpiperidin-1-yl)(3-methyl-2-(2H-1,2,3-triazol-2-yl)phenyl)methanone]

The next lines start with the compound.

SMILES | Ki
Cc1ccc(-c2ncccn2)c(C(=O)N2CCC[C@@H](Nc3cc(C)nc(C(F)(F)F)n3)[C@@H]2C)c1 (racemic) [Example 7, (±)-trans-(5-methyl-2-(pyrimidin-2-yl)phenyl)(2-methyl-3-((6-methyl-2-(trifluoromethyl)pyrimidin-4-yl)amino)piperidin-1-yl)methanone] | 243 nM
Cc1cc(N[C@@H]2CCCN(C(=O)c3cc(F)ccc3-c3ncccn3)[C@H]2C)nc(C(F)(F)F)n1 (racemic) [Example 9, (±)-trans-(5-fluoro-2-(pyrimidin-2-yl)phenyl)(2-methyl-3-((6-methyl-2-(trifluoromethyl)pyrimidin-4-yl)amino)piperidin-1-yl)methanone] | 2260 nM
Cc1ccc(-n2nccn2)c(C(=O)N2CCC[C@@H](Oc3ccc(C(F)(F)F)cn3)[C@@H]2C)n1 (racemic) [Example 109, (±)-trans-(2-methyl-3-((5-(trifluoromethyl)pyridin-2-yl)oxy)piperidin-1-yl)(6-methyl-3-(2H-1,2,3-triazol-2-yl)pyridin-2-yl)methanone] | 463 nM
COc1ccc(C(=O)N2CCC[C@@H](Nc3ccc(C(F)(F)F)cn3)[C@@H]2C)c(Cl)n1 (relative stereo) [Example 193, (2-chloro-6-methoxypyridin-3-yl)((2S*,3R*)-2-methyl-3-((5-(trifluoromethyl)pyridin-2-yl)amino)piperidin-1-yl)methanone] | > 10000 nM
CCOc1ccc(C)nc1C(=O)N1CCC[C@@H](Nc2ccc(C(F)(F)F)cn2)[C@@H]1C (relative stereo) [Example 194, (3-ethoxy-6-methylpyridin-2-yl)((2S*,3R*)-2-methyl-3-((5-(trifluoromethyl)pyridin-2-yl)amino)piperidin-1-yl)methanone] | 315 nM
C[C@H]1[C@H](Nc2cnc(C(F)(F)F)cn2)CCCN1C(=O)c1cccc(F)c1-c1ncccn1 (relative stereo) [Example 207, (3-fluoro-2-(pyrimidin-2-yl)phenyl)((2S*,3R*)-2-methyl-3-((5-(trifluoromethyl)pyrazin-2-yl)amino)piperidin-1-yl)methanone] | 385 nM
C[C@H]1[C@H](Oc2ccc(C(F)(F)F)cn2)CCCN1C(=O)c1ncccc1-c1ncccn1 (relative stereo) [Example 210, ((2S*,3R*)-2-methyl-3-((5-(trifluoromethyl)pyridin-2-yl)oxy)piperidin-1-yl)(3-(pyrimidin-2-yl)pyridin-2-yl)methanone] | 742 nM
Cc1ccc(C(=O)N2CCC[C@@H](Nc3nc4ccccc4o3)[C@@H]2C)c(-n2nccn2)n1 [Example 75, ((2S,3R)-3-(benzo[d]oxazol-2-ylamino)-2-methylpiperidin-1-yl)(6-methyl-2-(2H-1,2,3-triazol-2-yl)pyridin-3-yl)methanone] | 8950 nM
Cc1ccc(-n2nccn2)c(C(=O)N2CCC[C@@H](Oc3ccc(C(F)(F)F)cn3)[C@@H]2C)n1 [Example 108, ((2S,3R)-2-methyl-3-((5-(trifluoromethyl)pyridin-2-yl)oxy)piperidin-1-yl)(6-methyl-3-(2H-1,2,3-triazol-2-yl)pyridin-2-yl)methanone] | 301 nM
